Data taken from publication PMC7811009, “Oxytocin modulates local topography of human functional connectome in healthy men at rest” (Communications Biology, 2021).

System: human functional connectome at rest
Test: Resting-state BOLD-fMRI, graph theory: node degree (mesoscale); same doses, time and cohort
Format: in vivo
Settings: post-hoc paired t-tests, FDR
Protocol: Each experimental session began with the treatment administration protocol that lasted about 22 min in total (Fig. 8, lower panel). After drug administration, participants were guided to the MRI scanner, where eight pulsed continuous arterial spin labelling scans (each lasting approx. eight minutes) were acquired, spanning 15–104 min post-dosing (data reported elsewhere[11]). The 8-min resting state BOLD-fMRI scan reported herein was obtained at about 57 ± 3.38 min post-dosing. Participants were instructed to lie still and maintain their gaze on a centrally placed fixation cross during scanning. We assessed participants’ levels of alertness (anchors: alert-drowsy) and excitement (anchors: excited-calm) using visual analogue scales (0–100) at three different time-points during the scanning session to evaluate subjective drug effects across time (data reported elsewhere[11]).
We used the CONN functional connectivity toolbox[97] to generate brain-wide functional connectivity matrices for each subject/session. […] The default atlas of the CONN toolbox includes 132 non-overlapping ROIs spanning cortical and subcortical areas and the cerebellum using a combination of the cortical and subcortical areas from the FSL Harvard-Oxford atlas and of the cerebellar areas of the Automatic Anatomical Labelling atlas (Supplementary data 1 for a detailed description). […] Finally, we normalized our correlation measures to z-scores using the Fisher’s r-z transform per subject/session.
We then used our z-transformed connectivity matrices to construct brain graphs representing a functional connectivity network for each subject/session. We used an undirected signed weighted approach in which we kept information about the sign and weight of each of the connections between the nodes (ROIs) of our network, without making assumptions about the direction of this relationship. These connectivity matrices represent fully connected networks, where each node corresponds to each of the ROIs we used to build the functional connectivity matrices and each edge represents the z-transformed value of functional connectivity between a pair of nodes. […] We used the fully weighted networks to calculate equi-sparse networks by retaining a fixed percentage (K) of the total amount of possible edges. […]
For each of the graph metrics analysed, we summarized the different values over the range of thresholds using the area under the curve (AUC), instead of applying multiple testing for each metric/threshold. […]

In the case of `CC[C@H](C)[C@@H]1NC(=O)[C@H](Cc2ccc(O)cc2)NC(=O)[C@@H](N)CSSC[C@@H](C(=O)N2CCC[C@H]2C(=O)N[C@@H](CC(C)C)C(=O)NCC(N)=O)NC(=O)[C@H](CC(N)=O)NC(=O)[C@H](CCC(N)=O)NC1=O` [oxytocin], the “Nodes with decreased node degree compared to placebo” value (intravenous, 10 IU) is reported as “decreased the node degree of the precuneus and right temporal pole”, the “Nodes with increased node degree compared to placebo” value (nebuliser, 40 IU intranasal) is reported as “increased the node degree of the left posterior superior temporal gyrus and left cerebellum (area 7)” and the “Nodes with decreased node degree compared to placebo” value (spray, 40 IU intranasal) is reported as “decreased the node degree of the right posterior inferior temporal gyrus”. For the same compound, the “Nodes with increased node degree compared to placebo” value (spray, 40 IU intranasal) was “increased node degree of the brainstem, left cerebellum (area 1) and right intracalcarine cortex”.
